Consider 28 molecules from US9867833B2, “Serine/threonine kinase inhibitors” (GENENTECH, INC., priority 2013, dated 2018).

human ERK-2 (Mitogen Activated Kinase 1), sequence (P28482 8-360): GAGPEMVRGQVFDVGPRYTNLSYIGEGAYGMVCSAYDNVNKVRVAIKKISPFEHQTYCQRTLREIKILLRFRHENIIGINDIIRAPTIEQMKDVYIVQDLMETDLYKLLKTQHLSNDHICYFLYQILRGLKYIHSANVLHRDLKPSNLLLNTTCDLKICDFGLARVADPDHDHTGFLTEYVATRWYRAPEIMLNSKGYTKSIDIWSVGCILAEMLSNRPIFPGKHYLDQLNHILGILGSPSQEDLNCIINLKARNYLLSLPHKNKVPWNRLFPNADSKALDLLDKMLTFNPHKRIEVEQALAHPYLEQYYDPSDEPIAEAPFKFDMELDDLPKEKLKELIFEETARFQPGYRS

The target of the assay is human ERK-2 (Mitogen Activated Kinase 1) (Homo sapiens (Human), UniProt P28482). Nature of the assay: ERK-2 Enzymatic Assay. The format is biochemical. As to conditions: human ERK-2 enzyme 5 nM, 25 μM ATP, S/T17 peptide substrate; isomer = configuration of CR2R3. In a few lines:
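Recombinant human ERK-2 (aa 8-360, N-terminal 6-His, E. coli) with 3-fold serially diluted compound. Per-well rates from linear fits converted to percent of control; IC50 by four-parameter fit.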
As for `Cc1cc(C[C@@H]2CCOc3cc(-c4ccnc(Nc5ccnn5C)n4)cc4nnc2n34)on1` [(S) I-93, N-(1-methyl-1H-pyrazol-5-yl)-4-(9-((3-methylisoxazol-5-yl)methyl)-8,9-dihydro-7H-6-oxa-1,2,2a^1-triazabenzo[cd]azulen-4-yl)pyrimidin-2-amine], 18200 pM corresponded to half-maximal inhibition (IC50).
The result for `COc1cccc(C[C@@H]2COc3cc(-c4ccnc(Nc5ccnn5C)c4)cc4nnc2n34)c1` [(S) I-97, 4-(3-(3-methoxybenzyl)-3,4-dihydro-5-oxa-1,2,2a^1-triazaacenaphthylen-7-yl)-N-(1-methyl-1H-pyrazol-5-yl)pyridin-2-amine] reads 794 pM; that for `Cn1nccc1Nc1nccc(-c2cc3n4c(nnc4c2)[C@@H](CCC(F)(F)F)CCO3)n1` [(S) I-102, N-(1-methyl-1H-pyrazol-5-yl)-4-(9-(3,3,3-trifluoropropyl)-8,9-dihydro-7H-6-oxa-1,2,2a^1-triazabenzo[cd]azulen-4-yl)pyrimidin-2-amine], 25 pM; that for `CCC[C@H]1CCOc2cc(-c3ccnc(Nc4ccnn4C)c3)cc3nnc1n23` [(S) I-103, N-(1-methyl-1H-pyrazol-5-yl)-4-(9-propyl-8,9-dihydro-7H-6-oxa-1,2,2a^1-triazabenzo[cd]azulen-4-yl)pyridin-2-amine], 26 pM.
The value for `CCC[C@H]1CCOc2cc(-c3ccnc(Nc4ccnn4C)n3)cc3nnc1n23` [(S) I-104, N-(1-methyl-1H-pyrazol-5-yl)-4-(9-propyl-8,9-dihydro-7H-6-oxa-1,2,2a^1-triazabenzo[cd]azulen-4-yl)pyrimidin-2-amine] was less than 20 pM; that for `CC(C)C[C@H]1CCOc2cc(-c3ccnc(Nc4ccnn4C)n3)cc3nnc1n23` [(S) I-107, 4-(9-isobutyl-8,9-dihydro-7H-6-oxa-1,2,2a^1-triazabenzo[cd]azulen-4-yl)-N-(1-methyl-1H-pyrazol-5-yl)pyrimidin-2-amine] was 23 pM; that for `Cn1nccc1Nc1nccc(-c2cc3n4c(nnc4c2)[C@@H](Oc2ccc(F)cc2)CCO3)n1` [(S) I-108, 4-(9-(4-fluorophenoxy)-8,9-dihydro-7H-6-oxa-1,2,2a^1-triazabenzo[cd]azulen-4-yl)-N-(1-methyl-1H-pyrazol-5-yl)pyrimidin-2-amine] was less than 20 pM.
The value for `Clc1cnn(C[C@@H]2CCOc3cc(-c4ccnc(NC5CCOCC5)n4)cc4nnc2n34)c1` [(S) I-110, 4-(9-((4-chloro-1H-pyrazol-1-yl)methyl)-8,9-dihydro-7H-6-oxa-1,2,2a^1-triazabenzo[cd]azulen-4-yl)-N-(tetrahydro-2H-pyran-4-yl)pyrimidin-2-amine] was 140 pM; that for `Cn1nccc1Nc1nccc(-c2cc3n4c(nnc4c2)[C@@H](Oc2ccc(F)c(F)c2)CCO3)n1` [(S) I-111, 4-(9-(3,4-difluorophenoxy)-8,9-dihydro-7H-6-oxa-1,2,2a^1-triazabenzo[cd]azulen-4-yl)-N-(1-methyl-1H-pyrazol-5-yl)pyrimidin-2-amine] was less than 20 pM; that for `CC(C)[C@H]1CNc2cc(-c3ccnc(Nc4ccnn4C)n3)cc3nnc1n23` [Compound I-3, S-4-(3-isopropyl-4,5-dihydro-3H-1,2,2a^1,5-tetraazaacenaphthylen-7-yl)-N-(1-methyl-1H-pyrazol-5-yl)pyrimidin-2-amine] was 39 pM.
In the case of `CN1C(=O)N[C@H](Cc2ccc(Cl)cc2)c2nnc3cc(-c4ccnc(Nc5ccnn5C)n4)cc1n23` [Compound I-6, (R)-9-(4-chlorobenzyl)-6-methyl-4-(2-((1-methyl-1H-pyrazol-5-yl)amino)pyrimidin-4-yl)-8,9-dihydro-1,2,2a^1,6,8-pentaazabenzo[cd]azulen-7(6H)-one], half-maximal inhibition (IC50) was put at 23 pM.
The value for `CC(C)C[C@@H]1c2nnc3cc(-c4ccnc(Nc5ccnn5C)n4)cc(n23)N(C)C(=O)N1C` [Compound I-19, (R)-9-isobutyl-6,8-dimethyl-4-(2-((1-methyl-1H-pyrazol-5-yl)amino)pyrimidin-4-yl)-8,9-dihydro-1,2,2a^1,6,8-pentaazabenzo[cd]azulen-7(6H)-one] was 1150 pM.
The result for `CC(C)C[C@@H]1c2nnc3cc(-c4ccnc(Nc5ccnn5C)n4)cc(n23)NC(=O)N1C` [Compound I-23, (R)-9-isobutyl-8-methyl-4-(2-((1-methyl-1H-pyrazol-5-yl)amino)pyrimidin-4-yl)-8,9-dihydro-1,2,2a^1,6,8-pentaazabenzo[cd]azulen-7(6H)-one] reads 1120 pM; that for `CC(C)C[C@H]1NC(=O)N(C)c2cc(-c3ccnc(Nc4ccnn4C)c3)cc3nnc1n23` [Compound I-25, (R)-9-isobutyl-6-methyl-4-(2-((1-methyl-1H-pyrazol-5-yl)amino)pyridin-4-yl)-8,9-dihydro-1,2,2a^1,6,8-pentaazabenzo[cd]azulen-7(6H)-one], 4280 pM.
The value for `COc1ccc(C[C@H]2NC(=O)N(C)c3cc(-c4ccnc(Nc5ccnn5C)c4)cc4nnc2n34)cc1` [Compound I-26, (R)-9-(4-methoxybenzyl)-6-methyl-4-(2-((1-methyl-1H-pyrazol-5-yl)amino)pyridin-4-yl)-8,9-dihydro-1,2,2a^1,6,8-pentaazabenzo[cd]azulen-7(6H)-one] was 390 pM; that for `CN1C(=O)N(Cc2ccccc2)c2nnc3cc(-c4ccnc(Nc5ccnn5C)n4)cc1n23` [Compound I-28, 3-benzyl-5-methyl-7-(2-((1-methyl-1H-pyrazol-5-yl)amino)pyrimidin-4-yl)-3H-1,2,2a^1,3,5-pentaazaacenaphthylen-4(5H)-one] was 20 pM; that for `CN1C(=O)N[C@H](Cc2cccc(F)c2)c2nnc3cc(-c4ccnc(Nc5ccnn5C)n4)cc1n23` [Compound I-39, (R)-9-(3-fluorobenzyl)-6-methyl-4-(2-((1-methyl-1H-pyrazol-5-yl)amino)pyrimidin-4-yl)-8,9-dihydro-1,2,2a^1,6,8-pentaazabenzo[cd]azulen-7(6H)-one] was 215 pM.
On to `CN1C(=O)N[C@H](CC2CC2)c2nnc3cc(-c4ccnc(Nc5ccnn5C)n4)cc1n23` [Compound I-51, (R)-9-(cyclopropylmethyl)-6-methyl-4-(2-((1-methyl-1H-pyrazol-5-yl)amino)pyrimidin-4-yl)-8,9-dihydro-1,2,2a^1,6,8-pentaazabenzo[cd]azulen-7(6H)-one], for which half-maximal inhibition (IC50) required 2340 pM.
Consider `Cn1nccc1Nc1nccc(-c2cc3n4c(nnc4c2)C(Cn2cc(C(F)(F)F)cn2)CCO3)n1` (stereo not shown) [Compound I-73, N-(1-methyl-1H-pyrazol-5-yl)-4-(9-((4-(trifluoromethyl)-1H-pyrazol-1-yl)methyl)-8,9-dihydro-7H-6-oxa-1,2,2a^1-triazabenzo[cd]azulen-4-yl)pyrimidin-2-amine], for which the IC50 (in general, the concentration needed to halve the response being measured) is less than 20 pM.
The value for `CN1C(=O)CC(Cc2ccc(F)cc2)c2nnc3cc(-c4ccnc(Nc5ccnn5C)n4)cc1n23` (stereo not shown) [Compound I-79, 9-(4-fluorobenzyl)-6-methyl-4-(2-((1-methyl-1H-pyrazol-5-yl)amino)pyrimidin-4-yl)-8,9-dihydro-1,2,2a^1,6-tetraazabenzo[cd]azulen-7(6H)-one] was 17000 pM.
The result for `CN1C(=O)C[C@H](Cc2cccc(Cl)c2)c2nnc3cc(-c4ccnc(Nc5ccnn5C)n4)cc1n23` [Compound I-80, (S)-9-(3-chlorobenzyl)-6-methyl-4-(2-((1-methyl-1H-pyrazol-5-yl)amino)pyrimidin-4-yl)-8,9-dihydro-1,2,2a^1,6-tetraazabenzo[cd]azulen-7(6H)-one] reads less than 20 pM.
The value for `COc1cccc(CC2COc3cc(-c4ccnc(Nc5ccnn5C)n4)cc4nnc2n34)c1` (stereo not shown) [Compound I-81, 4-(3-(3-methoxybenzyl)-3,4-dihydro-5-oxa-1,2,2a^1-triazaacenaphthylen-7-yl)-N-(1-methyl-1H-pyrazol-5-yl)pyrimidin-2-amine] was less than 20 pM.
With `Cn1nccc1Nc1cc(-c2cc3n4c(nnc4c2)C(Cc2ccc(F)c(Cl)c2)CO3)ccn1` (stereo not shown) [Compound I-83, 4-(3-(3-Chloro-4-fluorobenzyl)-3,4-dihydro-5-oxa-1,2,2a^1-triazaacenaphthylen-7-yl)-N-(1-methyl-1H-pyrazol-5-yl)pyridin-2-amine], half-maximal inhibition (IC50) required 111 pM.
The value for `CN1C(=O)C[C@@H](Cc2ccc(Cl)cn2)c2nnc3cc(-c4ccnc(Nc5ccnn5C)c4)cc1n23` [Compound I-94, (R)-9-((5-chloropyridin-2-yl)methyl)-6-methyl-4-(2-((1-methyl-1H-pyrazol-5-yl)amino)pyridin-4-yl)-8,9-dihydro-1,2,2a^1,6-tetraazabenzo[cd]azulen-7(6H)-one] was 598000 pM.
The value for `Cn1nccc1Nc1nccc(-c2cc3n4c(nnc4c2)C(C2CC2)CO3)n1` (stereo not shown) [Compound I-95, 4-(3-cyclopropyl-3,4-dihydro-5-oxa-1,2,2a^1-triazaacenaphthylen-7-yl)-N-(1-methyl-1H-pyrazol-5-yl)pyrimidin-2-amine] was 751 pM.
The value for `Cn1nccc1Nc1cc(-c2cc3n4c(nnc4c2)C(Cc2cccc(Cl)c2)CO3)ccn1` (stereo not shown) [Compound I-96, 4-(3-(3-chlorobenzyl)-3,4-dihydro-5-oxa-1,2,2a^1-triazaacenaphthylen-7-yl)-N-(1-methyl-1H-pyrazol-5-yl)pyridin-2-amine] was 149 pM; that for `CN1C(=O)N(Cc2ccc(Cl)cc2)c2nnc3cc(-c4ccnc(Nc5ccnn5C)n4)cc1n23` [Compound I-98, 3-(4-chlorobenzyl)-5-methyl-7-(2-((1-methyl-1H-pyrazol-5-yl)amino)pyrimidin-4-yl)-3H-1,2,2a^1,3,5-pentaazaacenaphthylen-4(5H)-one] was 273 pM.
Molecule `CN1C(=O)N(Cc2cc(F)cc(F)c2)c2nnc3cc(-c4ccnc(Nc5ccnn5C)n4)cc1n23` [Compound I-99, 3-(3,5-difluorobenzyl)-5-methyl-7-(2-((1-methyl-1H-pyrazol-5-yl)amino)pyrimidin-4-yl)-3H-1,2,2a^1,3,5-pentaazaacenaphthylen-4(5H)-one] gave an IC50 of 113 pM.
